How the values were obtained:
[1] = system: A549-ACE2 infected with SARS-CoV-2; experiment: cell count relative to DMSO; higher = less toxic; conditions: 24 h
Calu-3 [2] = experiment: cell viability relative to DMSO; higher = less toxic; conditions: 72 h
HepG2 [3] = experiment: as above; conditions: 72 h
U2OS [4] = experiment: as above; conditions: 72 h
Vero E6 [5] = experiment: as above; conditions: 72 h
[6] = system: A549-ACE2 infected with SARS-CoV-2; experiment: SARS-CoV-2 infection rate relative to DMSO; higher = more infection; conditions: 24 h
A549-ACE2 [7] = experiment: phospholipidosis EC50; higher = less potent phospholipidosis inducer
A549-ACE2 [8] = experiment: drug-induced phospholipidosis relative to tamoxifen; higher = more phospholipidosis
[9] = system: A549-ACE2 infected with SARS-CoV-2; experiment: morphology score (similarity to uninfected cells); higher = more like uninfected cells; conditions: 24 h
Caco-2 [10] = experiment: relative viability EC50 (midpoint between 100% and the lowest measured viability); higher = less toxic; conditions: 72 h
HepG2 [11] = experiment: as above; conditions: 72 h
U2OS [12] = experiment: as above; conditions: 72 h
Vero E6 [13] = experiment: as above; conditions: 72 h
Caco-2 [14] = experiment: drug sensitivity score (DSS) for viability; higher = more toxic; extreme values may be limits of the assay; conditions: 72 h
Calu-3 [15] = experiment: as above; conditions: 72 h
HepG2 [16] = experiment: as above; conditions: 72 h
U2OS [17] = experiment: as above; conditions: 72 h
Vero E6 [18] = experiment: as above; conditions: 72 h
Caco-2 [19] = experiment: cell viability relative to DMSO; higher = less toxic; conditions: 72 h
Calu-3 [20] = experiment: relative viability EC50 (midpoint between 100% and the lowest measured viability); higher = less toxic; conditions: 72 h

CN1CCC[C@@H]1CCO[C@](C)(c1ccccc1)c1ccc(Cl)cc1 [clemastine]
Conditions | SARS-CoV-2 infection rate [%] | cell count [%] | cell viability [%] | morphology score | phospholipidosis EC50 [µM]
A549-ACE2 [7], 24 h | – | – | – | – | 3.92
A549-ACE2 [7], 48 h | – | – | – | – | 4.81
A549-ACE2 [7], 72 h | – | – | – | – | 4.96
Calu-3 [2], 1 nM | – | – | 96.8 | – | –
Calu-3 [2], 10 nM | – | – | 101 | – | –
Calu-3 [2], 100 nM | – | – | 91.8 | – | –
Calu-3 [2], 1000 nM | – | – | 105 | – | –
Calu-3 [2], 10000 nM | – | – | 73.9 | – | –
HepG2 [3], 1 nM | – | – | 108 | – | –
HepG2 [3], 10 nM | – | – | 95.6 | – | –
HepG2 [3], 100 nM | – | – | 104 | – | –
HepG2 [3], 1000 nM | – | – | 96.5 | – | –
HepG2 [3], 10000 nM | – | – | 78.5 | – | –
U2OS [4], 1 nM | – | – | 95.4 | – | –
U2OS [4], 10 nM | – | – | 101 | – | –
U2OS [4], 100 nM | – | – | 96.1 | – | –
U2OS [4], 1000 nM | – | – | 103 | – | –
U2OS [4], 10000 nM | – | – | 96.7 | – | –
Vero E6 [5], 1 nM | – | – | 102 | – | –
Vero E6 [5], 10 nM | – | – | 96.5 | – | –
Vero E6 [5], 100 nM | – | – | 96.8 | – | –
Vero E6 [5], 1000 nM | – | – | 95.6 | – | –
Vero E6 [5], 10000 nM | – | – | 96.3 | – | –
[1], 0.3 µM | – | 99 | – | – | –
[1], 3 µM | – | 120 | – | – | –
[1], 10 µM | – | 123 | – | – | –
[1], 30 µM | – | 104 | – | – | –
[6], 0.3 µM | 100 | – | – | – | –
[6], 3 µM | 43 | – | – | – | –
[6], 10 µM | 32 | – | – | – | –
[6], 30 µM | 21 | – | – | – | –
[9], 0.3 µM | – | – | – | 0.04 | –
[9], 3 µM | – | – | – | 0.8 | –
[9], 10 µM | – | – | – | 0.86 | –
[9], 30 µM | – | – | – | 0.52 | –

drug-induced phospholipidosis [%], A549-ACE2 [8]
Conditions | 0.3 µM | 0.833333 µM | 3.33333 µM | 6.66667 µM | 10 µM | 30 µM
24 h | 0.63 | 8.33 | 38.5 | 87.2 | 102 | 98.4
48 h | 1.7 | 9.62 | 25.8 | 80.6 | 96.8 | –
72 h | 4.55 | 9.81 | 21.5 | 79.5 | 95.6 | –

Conditions | drug sensitivity score | relative viability EC50 [µM]
Caco-2 [10] | – | > 10
Caco-2 [14] | 0 | –
Calu-3 [15] | 0.8 | –
HepG2 [11] | – | > 10
HepG2 [16] | 1.2 | –
U2OS [12] | – | > 10
U2OS [17] | 0 | –
Vero E6 [13] | – | > 10
Vero E6 [18] | 0 | –

Cc1c(O)cccc1C(=O)N[C@@H](CSc1ccccc1)[C@H](O)CN1C[C@H]2CCCC[C@H]2C[C@H]1C(=O)NC(C)(C)C [nelfinavir]
Conditions | SARS-CoV-2 infection rate [%] | cell count [%] | cell viability [%] | morphology score | phospholipidosis EC50 [µM]
A549-ACE2 [7], 24 h | – | – | – | – | 11.6
Caco-2 [19], 1 nM | – | – | 104 | – | –
Caco-2 [19], 10 nM | – | – | 93.4 | – | –
Caco-2 [19], 100 nM | – | – | 95.1 | – | –
Caco-2 [19], 1000 nM | – | – | 70.1 | – | –
Caco-2 [19], 10000 nM | – | – | 78.7 | – | –
Calu-3 [2], 1 nM | – | – | 101 | – | –
Calu-3 [2], 10 nM | – | – | 87.1 | – | –
Calu-3 [2], 100 nM | – | – | 137 | – | –
Calu-3 [2], 1000 nM | – | – | 109 | – | –
Calu-3 [2], 10000 nM | – | – | 86.7 | – | –
HepG2 [3], 1 nM | – | – | 107 | – | –
HepG2 [3], 10 nM | – | – | 96.7 | – | –
HepG2 [3], 100 nM | – | – | 89.5 | – | –
HepG2 [3], 1000 nM | – | – | 90.2 | – | –
HepG2 [3], 10000 nM | – | – | 76.4 | – | –
U2OS [4], 1 nM | – | – | 98.2 | – | –
U2OS [4], 10 nM | – | – | 92.5 | – | –
U2OS [4], 100 nM | – | – | 96.8 | – | –
U2OS [4], 1000 nM | – | – | 93.5 | – | –
U2OS [4], 10000 nM | – | – | 86.9 | – | –
Vero E6 [5], 1 nM | – | – | 105 | – | –
Vero E6 [5], 10 nM | – | – | 99.7 | – | –
Vero E6 [5], 100 nM | – | – | 88.6 | – | –
Vero E6 [5], 1000 nM | – | – | 97.3 | – | –
Vero E6 [5], 10000 nM | – | – | 93.6 | – | –
[1], 0.3 µM | – | 104 | – | – | –
[1], 3 µM | – | 96 | – | – | –
[1], 10 µM | – | 113 | – | – | –
[1], 30 µM | – | 97 | – | – | –
[6], 0.3 µM | 95 | – | – | – | –
[6], 3 µM | 102 | – | – | – | –
[6], 10 µM | 69 | – | – | – | –
[6], 30 µM | 10 | – | – | – | –
[9], 0.3 µM | – | – | – | 0.27 | –
[9], 3 µM | – | – | – | 0.2 | –
[9], 10 µM | – | – | – | 0.69 | –
[9], 30 µM | – | – | – | 0.42 | –

drug-induced phospholipidosis [%], A549-ACE2 [8]
Conditions | 0.3 µM | 0.833333 µM | 3.33333 µM | 6.66667 µM | 10 µM | 30 µM
24 h | 1.63 | 2.14 | 9.03 | 22.8 | 35.3 | 64.7
48 h | 1.06 | -2.76 | 10.6 | 21.3 | 40.6 | –
72 h | 1.29 | -2.99 | 4.63 | 19.4 | 37 | –

Conditions | drug sensitivity score | relative viability EC50 [µM]
Caco-2 [14] | 5.8 | –
Calu-3 [15] | 0 | –
Calu-3 [20] | – | > 10
HepG2 [11] | – | > 10
HepG2 [16] | 1.8 | –
U2OS [12] | – | > 10
U2OS [17] | 0 | –
Vero E6 [13] | – | > 10
Vero E6 [18] | 0 | –

CN(C)CCCCC(=O)Nc1ccc(NC(=S)NC(=O)c2ccc(C(C)(C)C)cc2)cc1 [tenovin-6]
Conditions | SARS-CoV-2 infection rate [%] | cell count [%] | cell viability [%] | morphology score | phospholipidosis EC50 [µM]
A549-ACE2 [7], 24 h | – | – | – | – | 2.91
Caco-2 [19], 1 nM | – | – | 92.9 | – | –
Caco-2 [19], 10 nM | – | – | 100 | – | –
Caco-2 [19], 100 nM | – | – | 98.5 | – | –
Caco-2 [19], 1000 nM | – | – | 94.6 | – | –
Caco-2 [19], 10000 nM | – | – | 12.2 | – | –
Calu-3 [2], 1 nM | – | – | 91.1 | – | –
Calu-3 [2], 10 nM | – | – | 107 | – | –
Calu-3 [2], 100 nM | – | – | 101 | – | –
Calu-3 [2], 1000 nM | – | – | 95.1 | – | –
Calu-3 [2], 10000 nM | – | – | 4.2 | – | –
HepG2 [3], 1 nM | – | – | 107 | – | –
HepG2 [3], 10 nM | – | – | 101 | – | –
HepG2 [3], 100 nM | – | – | 110 | – | –
HepG2 [3], 1000 nM | – | – | 88.8 | – | –
HepG2 [3], 10000 nM | – | – | 0.8 | – | –
U2OS [4], 1 nM | – | – | 94 | – | –
U2OS [4], 10 nM | – | – | 97.9 | – | –
U2OS [4], 100 nM | – | – | 96.3 | – | –
U2OS [4], 1000 nM | – | – | 101 | – | –
U2OS [4], 10000 nM | – | – | 5.4 | – | –
Vero E6 [5], 1 nM | – | – | 99.4 | – | –
Vero E6 [5], 10 nM | – | – | 96.7 | – | –
Vero E6 [5], 100 nM | – | – | 104 | – | –
Vero E6 [5], 1000 nM | – | – | 103 | – | –
Vero E6 [5], 10000 nM | – | – | 27.8 | – | –
[1], 0.1 µM | – | 100 | – | – | –
[1], 0.3 µM | – | 102 | – | – | –
[1], 1 µM | – | 98 | – | – | –
[1], 3 µM | – | 113 | – | – | –
[6], 0.1 µM | 91 | – | – | – | –
[6], 0.3 µM | 90 | – | – | – | –
[6], 1 µM | 93 | – | – | – | –
[6], 3 µM | 23 | – | – | – | –
[9], 0.1 µM | – | – | – | 0.22 | –
[9], 0.3 µM | – | – | – | 0.15 | –
[9], 1 µM | – | – | – | -0.08 | –
[9], 3 µM | – | – | – | 0.8 | –

drug-induced phospholipidosis [%], A549-ACE2 [8]
Conditions | 0.3 µM | 0.833333 µM | 3.33333 µM | 6.66667 µM | 10 µM
24 h | -1.65 | -1.47 | 61.4 | 90.4 | 56.6
48 h | 1.91 | 0.33 | 30 | – | –
72 h | 0.744 | -3.12 | 26.8 | – | –

Conditions | drug sensitivity score | relative viability EC50 [µM]
Caco-2 [10] | – | 2.68
Caco-2 [14] | 5.7 | –
Calu-3 [15] | 6 | –
Calu-3 [20] | – | 2.77
HepG2 [11] | – | 2.24
HepG2 [16] | 7.3 | –
U2OS [12] | – | 3.24
U2OS [17] | 5.2 | –
Vero E6 [13] | – | 3.37
Vero E6 [18] | 3.8 | –

Reference: the supplement of paper PMC13380429
